Measurements: patent US20100008971A1, “CHEWING COMPOSITION COMPRISING COENZYME Q10” (SAN-EI GEN F.F.I., INC., priority 2006, published 2010)

Columns and labels:
[1] = Release of Coenzyme Q10 into saliva from stick gums chewed by four subjects (HPLC of chewed gum); type: in vivo, human; settings: 0.048 wt % CoQ10 in gum, 1 g chewed 5 min, 60 times/min
Method: Using one of Samples 1 to 5 obtained above, raw materials were blended according to the formulation shown below such that the content of Coenzyme Q10 in 100 g of the resulting stick gum would be 48 mg, and each mixture was molded to form a stick gum. Specific procedures are as follows: A gum base was first kneaded at 70° C. with sugar, corn syrup and glycerol, and the mixture was blended with Lemon Oil No. 2451* (flavoring agent) and San Yellow^‡ No. 3* (colorant). One each of Samples 1, 2, 3, 4 or 5 was then added to the resulting mixture. After cooling to room temperature, each material was rolled and molded to prepare a chewing gum (stick gum). The gum base used in the following formulation was purchased from Lotte, Co., Ltd. (Gum Base LT1).
Each type of the stick gums thus prepared was sampled in a precise amount of 4 g, and placed in a stoppered centrifuge tube. To the tube was added 10 ml of a 20% (v/v) tetrahydrofuran aqueous solution. The tube was then equipped with a Dimroth condenser, and the solution was refluxed, while occasionally mixing it by shaking, in a hot bath at 82° C. for 30 minutes. The refluxed solution was then cooled to room temperature, and 15 ml of diethyl ether was added, followed by extraction with shaking for 10 minutes. […]
The proportion of Coenzyme Q10 released into saliva was determined based on Equation 1: […]

[2] = Release of Coenzyme Q10 into saliva from sugar-coated gums with the sample in the sugar coating, chewed by four subjects; type: in vivo, human; settings: sugar-coated gum, 0.020 wt % CoQ10 in gum, one piece (1.5 g) chewed 5 min, 60 times/min
Method: Sugar-coated gums (1.5 g/tablet) each comprising Coenzyme Q10 in the sugar coating were prepared in the manner described below such that the content of Coenzyme Q10 in 100 g of the sugar-coated gum was 20 mg.
A gum base (trade name: Gum Base LT2, manufactured by Lotte, Co., Ltd.) was kneaded at 70° C. with xylitol, corn syrup and glycerol, and after the addition of Lemon Oil No. 2451* (flavoring agent), the mixture was cooled to room temperature and molded to a tablet shape.
Maltitol and gum arabic were added to water and dissolved by heating. After cooling the mixture to room temperature, one each of Sample 1, 2, 4, 5 or 6 was added and mixed homogeneously.
The sugar solutions thus obtained were each spray dried over the gum centers using a coating pan and dried. The proportion of the sugar-coating layer was 50 parts by weight to 100 parts by weight of the gum center. […]
Each type of the sugar-coated gums prepared above were sampled in a precise amount of 6 g (total weight of four pieces), and one piece each of these gums was chewed by four subjects under the same conditions as in Test Example 1. […] The samples were subjected to HPLC under the same conditions to determine the contents of Coenzyme Q10 in the chewed gums, and then the release of Coenzyme Q10 into saliva from these gums was evaluated as in Test Example 1.

Release (%) of Coenzyme Q10 into saliva [1]: 0%
Release (%) of Coenzyme Q10 into saliva [2]: 30.0%
Structure (SMILES): COC1=C(OC)C(=O)C(C/C=C(\C)CC/C=C(\C)CC/C=C(\C)CC/C=C(\C)CC/C=C(\C)CC/C=C(\C)CC/C=C(\C)CC/C=C(\C)CC/C=C(\C)CCC=C(C)C)=C(C)C1=O [Sample 5, Coenzyme Q10]
